Starred links: 1 amine or outer side, 2 acyl side, 3 side chain; linkers in the order of their positions; H or OH if unused. Positions of bridges follow the written chain, without caps; N, C: chain ends. Non-standard residues stand in square brackets, D forms with d. Residues, ends and D or L forms follow the SMILES beside them. Trimesoyl = O=C(c1cc(C(=O)[*:2])cc(C(=O)[*:3])c1)[*:1]; Phe(3-Cl) = N[C@@H](Cc1cccc(Cl)c1)C(=O)O; Phe(4-Cl) = N[C@@H](Cc1ccc(Cl)cc1)C(=O)O; Phe(4-F) = N[C@@H](Cc1ccc(F)cc1)C(=O)O; d2Nal = N[C@H](Cc1ccc2ccccc2c1)C(=O)O; βAsp = O=C(O)[C@H](CC(=O)[*:2])N[*:1]; Nle = CCCC[C@H](N)C(=O)O; Orn = NCCC[C@H](N)C(=O)O; Dap = NC[C@H](N)C(=O)O
Tests used:
Etf-1 = Etf-1 (Ehrlichia chaffeensis, UniProt Q2GG12); assay: FP assay of Etf-1 binding with FAM-labeled peptides
Experimental: The peptides were labeled at their C-terminus with carboxyfluorescein (FAM) through a β-Ala-β-Ala-Lys linker and evaluated for binding to Etf-1 by using a fluorescence polarization (FP) assay. […] This outcome is not unexpected, as screening OBOC libraries is often complicated by false positives, due to the presence of high ligand densities on library beads ([28]).
Fig. 2. Determination of binding affinity of Etf-1-binding peptides by FP assay. […] FAM-labeled peptide (50 nM) was incubated with serially diluted Etf-1 (starting from 25–30 μM in PBS, pH 7.4, supplemented with 5 mM DTT and 0.01% Triton X-100) for 1 h at RT. FP values were measured on a Tecan Infinite M1000 Pro plate reader. Titration curves (n ≥ 3) were fitted using GraphPad Prism and analyzed with TraceDrawer to calculate dissociation constants (KD). […] Data were analyzed using GraphPad Prism and fitted to a four-parameter variable slope equation to determine IC50 values.
Etf-1 and macrocyclic peptides were serially diluted in PBS supplemented with 5 mM DTT and 0.01% Triton X-100 (v/v). FAM-labeled peptides (50 nM) were prepared from a 10-μM DMSO stock and incubated with serially diluted Etf-1 for 1 h at room temperature (RT). Twenty microliters of the solutions were transferred to a black 384-well plate (Greiner Bio-One) and FP values were measured on a Tecan Infinite M1000 Pro plate reader with excitation and emission wavelengths at 470 and 535 nm, respectively. Titration curves (n ≥ 3) were fitted using GraphPad Prism v8.0 (GraphPad, La Jolla, CA, USA), and analyzed with TraceDrawer software v1.8 (Ridgeview Instruments AB, Uppsala, Sweden) to calculate the dissociation constant (KD, in nM).

E. chaffeensis [1] = assay: E. chaffeensis infection of THP-1 cells, qPCR of 16S rRNA gene normalized to human actin; type: cell-based, Ehrlichia chaffeensis
Experimental: Therefore, we investigated whether these Etf-1-binding peptides can prevent the proliferation of E. chaffeensis inside host cells. THP-1 cells were infected with E. chaffeensis, then treated with the peptides at 30 min post infection (pi) for 2 days. Intracellular infection and proliferation of E. chaffeensis inside host THP-1 cells were assessed using quantitative PCR (qPCR) analysis based on E. chaffeensis 16S rRNA gene normalized by human actin (ACT) gene.
Fig. 5. Effects of Etf-1-binding peptides on E. chaffeensis infection of THP-1 cells. Ehrlichia chaffeensis-infected THP-1 cells at […] were incubated with 10 μM of Etf-1-binding macrocyclic peptide or DMSO control for 2 days.
No antibiotic was used throughout the study.
DNA was extracted from each sample using Qiagen blood mini kit according to the manufacturer's instructions (Qiagen, Valencia, CA, USA), and qPCR analysis was performed in an MX3000P qPCR instrument (Stratagene, San Diego, CA, USA) using SYBR Green Real-Time PCR Master Mix (Thermo Fisher Scientific) according to the manufacturer's instructions. Five-fold serial dilutions of the control group were used to generate a standard curve to calculate the relative copy numbers of E. chaffeensis 16S rRNA normalized against human actin genes using the MX3000P software from Stratagene as described previously ([18], [44]).

E. chaffeensis [2] = assay: morphological examination of E. chaffeensis infection of THP-1 cells by Diff-Quik staining; details: THP-1 cells, Fig. S4 (with Figs. 5, S3)
Experimental: Ehrlichia chaffeensis Arkansas strain ([43]) was cultured in THP-1 cells (ATCC, Manassas, VA, USA) in RPMI 1640 medium (Corning, Manassas, VA, USA) supplemented with 8% FBS (Atlanta Biologicals, Flowery Branch, GA, USA) and 4 mM L-glutamine (at 37°C under 5% CO2 in a humidified atmosphere. THP-1 cells were seeded at 1 × 10^5 cells/well (in 1.5-mL RPMI 1640 culture medium with 8% FBS, 4 mM L-Gln) in a 12-well plate, then infected with host cell-free E. chaffeensis at an MOI (multiplicity of infection, or numbers of bacteria per cell) of ∼30. Cells were cultured in a humidified incubator with 5% CO2 and 95% air. No antibiotic was used throughout the study. At 0.5 h post infection (pi), cells were incubated with 1–10 μM of peptides or with an equal volume of DMSO (solvent control, 2 μL per mL medium). At 2 days pi, cells were washed with 1 mL of PBS, and two drops of cells were cytospun onto glass slides by a Shandon Cytospin 4 cytocentrifuge (Thermo Fisher Scientific), then fixed and stained with HEMA 3 staining solutions (Thermo Fisher Scientific). Ehrlichia infection was observed and images were captured by a SPOT RT digital camera (Diagnostic Instruments, Sterling Heights, MI, USA) coupled to a Nikon Eclipse E400 microscope (Nikon, Melville, NY, USA).

Chain of Etf-1 (Q2GG12 entry or part of it): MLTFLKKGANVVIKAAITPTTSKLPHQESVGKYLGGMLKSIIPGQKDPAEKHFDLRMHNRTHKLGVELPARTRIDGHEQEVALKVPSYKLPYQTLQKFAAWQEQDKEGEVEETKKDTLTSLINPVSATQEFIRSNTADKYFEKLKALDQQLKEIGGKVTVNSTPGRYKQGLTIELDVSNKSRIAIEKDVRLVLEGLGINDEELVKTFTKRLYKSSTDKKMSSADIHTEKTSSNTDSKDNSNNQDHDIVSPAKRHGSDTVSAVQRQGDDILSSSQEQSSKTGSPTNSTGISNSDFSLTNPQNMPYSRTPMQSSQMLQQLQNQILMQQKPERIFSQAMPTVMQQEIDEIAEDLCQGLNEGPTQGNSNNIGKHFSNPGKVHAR

Row | SMILES | Kd (Etf-1) | further results
1 | CC(C)C[C@H]1NC(=O)[C@H](CO)NC(=O)[C@H]2CCCN2C(=O)[C@H](CCC(N)=O)NC(=O)[C@H](Cc2c[nH]cn2)NC(=O)[C@H](Cc2ccc(O)cc2)NC(=O)c2cc3cc(c2)C(=O)NC[C@H](NC1=O)C(=O)N[C@@H](Cc1ccccc1)C(=O)N[C@H](Cc1ccc2ccccc2c1)C(=O)N[C@H](CCCNC(=N)N)C(=O)N[C@@H](C)C(=O)N[C@H](CCCNC(=N)N)C(=O)N[C@@H](CCCNC(=N)N)C(=O)N[C@H](C(N)=O)CNC3=O [Peptide B7-10, TMA-Tyr-His-Gln-pro-Ser-leu-Dap-Phe-nal-arg-Ala-arg-Arg-Dap] (YHQ[dP]S[dL][Dap]F[d2Nal][dR]A[dR]R[Dap]-NH2; linker N-7-14 via Trimesoyl) | 30 ± 3 µM | –
2 | CC(C)C[C@H]1NC(=O)[C@H](CO)NC(=O)[C@H]2CCCN2C(=O)[C@H](CCC(N)=O)NC(=O)[C@H](Cc2c[nH]cn2)NC(=O)[C@H](Cc2ccc(O)cc2)NC(=O)c2cc3cc(c2)C(=O)NC[C@H](NC1=O)C(=O)N[C@@H](Cc1cccc(Cl)c1)C(=O)N[C@H](Cc1ccc2ccccc2c1)C(=O)N[C@H](CCCNC(=N)N)C(=O)N[C@@H](CCCNC(=N)N)C(=O)N[C@H](CCCNC(=N)N)C(=O)N[C@@H](CCCNC(=N)N)C(=O)N[C@H](C(N)=O)CNC3=O [Peptide B7-17, TMA-Tyr-His-Gln-pro-Ser-leu-Dap-3-ClPhe-nal-arg-Arg-arg-Arg-Dap] (YHQ[dP]S[dL][Dap][Phe(3-Cl)][d2Nal][dR]R[dR]R[Dap]-NH2; linker N-7-14 via Trimesoyl) | 3.4 ± 0.4 µM | –
3 | CCCC[C@@H]1NC(=O)[C@H](Cc2ccc(O)cc2)NC(=O)c2cc3cc(c2)C(=O)NC[C@H](NC(=O)[C@@H](CC(C)C)NC(=O)CNC(=O)[C@H](CCC(N)=O)NC(=O)[C@@H](CCC(=O)O)NC1=O)C(=O)N[C@@H](Cc1ccc(Cl)cc1)C(=O)N[C@H](Cc1ccc2ccccc2c1)C(=O)N[C@H](CCCNC(=N)N)C(=O)N[C@@H](CCCNC(=N)N)C(=O)N[C@H](CCCNC(=N)N)C(=O)N[C@@H](CCCNC(=N)N)C(=O)N[C@H](C(N)=O)CNC3=O [Peptide B7-133-4, TMA-Tyr-Nle-glu-Gln-Gly-leu-Dap-4-ClPhe-nal-arg-Arg-arg-Arg-Dap] (Y[Nle][dE]QG[dL][Dap][Phe(4-Cl)][d2Nal][dR]R[dR]R[Dap]-NH2; linker N-7-14 via Trimesoyl) | 6.5 ± 0.1 µM | –
4 | CC(C)C[C@H]1NC(=O)[C@H](CO)NC(=O)[C@H]2CCCN2C(=O)[C@H](CCC(N)=O)NC(=O)[C@H](Cc2c[nH]cn2)NC(=O)[C@H](Cc2ccc(O)cc2)NC(=O)c2cc3cc(c2)C(=O)NC[C@H](NC1=O)C(=O)N[C@@H](Cc1ccccc1)C(=O)N[C@H](Cc1ccc2ccccc2c1)C(=O)N[C@H](C)C(=O)N[C@@H](CCCNC(=N)N)C(=O)N[C@H](CCCNC(=N)N)C(=O)N[C@@H](CCCNC(=N)N)C(=O)N[C@H](C(N)=O)CNC3=O [Peptide B7-9, TMA-Tyr-His-Gln-pro-Ser-leu-Dap-Phe-nal-ala-Arg-arg-Arg-Dap] (YHQ[dP]S[dL][Dap]F[d2Nal][dA]R[dR]R[Dap]-NH2; linker N-7-14 via Trimesoyl) | 30 ± 7 µM | –
5 | CC(C)C[C@H]1NC(=O)[C@H](Cc2ccc(F)cc2)NC(=O)[C@@H](CCC(=O)O)NC(=O)C[C@@H](C(=O)O)NC(=O)[C@H](CCCN)NC(=O)[C@H](CC(=O)O)NC(=O)[C@H](Cc2ccc(O)cc2)NC(=O)c2cc3cc(c2)C(=O)NC[C@H](NC1=O)C(=O)N[C@@H](Cc1ccc(Cl)cc1)C(=O)N[C@H](Cc1ccc2ccccc2c1)C(=O)N[C@H](CCCNC(=N)N)C(=O)N[C@@H](CCCNC(=N)N)C(=O)N[C@H](CCCNC(=N)N)C(=O)N[C@@H](CCCNC(=N)N)C(=O)N[C@H](C(N)=O)CNC3=O [Peptide B7-95-1, TMA-Tyr-Asp-Orn-isoAsp-glu-Fpa-leu-Dap-4-ClPhe-nal-arg-Arg-arg-Arg-Dap] (YD[Orn][βAsp][dE][Phe(4-F)][dL][Dap][Phe(4-Cl)][d2Nal][dR]R[dR]R[Dap]-NH2; linker N-8-15 via Trimesoyl) | 3.2 µM | –
6 | CC(C)C[C@H]1NC(=O)[C@H](CO)NC(=O)[C@@H](C)NC(=O)[C@H](CCC(N)=O)NC(=O)[C@H](Cc2c[nH]cn2)NC(=O)[C@H](Cc2ccc(O)cc2)NC(=O)c2cc3cc(c2)C(=O)NC[C@H](NC1=O)C(=O)N[C@@H](Cc1ccccc1)C(=O)N[C@H](Cc1ccc2ccccc2c1)C(=O)N[C@H](CCCNC(=N)N)C(=O)N[C@@H](CCCNC(=N)N)C(=O)N[C@H](CCCNC(=N)N)C(=O)N[C@@H](CCCNC(=N)N)C(=O)N[C@H](C(N)=O)CNC3=O [Peptide B7-3, TMA-Tyr-His-Gln-ala-Ser-leu-Dap-Phe-nal-arg-Arg-arg-Arg-Dap] (YHQ[dA]S[dL][Dap]F[d2Nal][dR]R[dR]R[Dap]-NH2; linker N-7-14 via Trimesoyl) | 5.8 ± 0.5 µM | –
7 | CCCC[C@@H]1NC(=O)[C@H](CC(=O)O)NC(=O)[C@@H](Cc2ccccc2)NC(=O)[C@H](Cc2ccc(O)cc2)NC(=O)c2cc3cc(c2)C(=O)NC[C@H](NC(=O)[C@@H](CC(C)C)NC(=O)[C@@H](CC(N)=O)NC1=O)C(=O)N[C@@H](Cc1ccc(Cl)cc1)C(=O)N[C@H](Cc1ccc2ccccc2c1)C(=O)N[C@H](CCCNC(=N)N)C(=O)N[C@@H](CCCNC(=N)N)C(=O)N[C@H](CCCNC(=N)N)C(=O)N[C@@H](CCCNC(=N)N)C(=O)N[C@H](C(N)=O)CNC3=O [Peptide B7-133-3, TMA-Tyr-phe-Asp-Nle-asn-leu-Dap-4-ClPhe-nal-arg-Arg-arg-Arg-Dap] (Y[dF]D[Nle][dN][dL][Dap][Phe(4-Cl)][d2Nal][dR]R[dR]R[Dap]-NH2; linker N-7-14 via Trimesoyl) | – | inhibition of E. chaffeensis infection (E. chaffeensis [1]; 10 μM, 2 days, vs DMSO control): significantly inhibited; dose dependence of inhibition of E. chaffeensis infection (E. chaffeensis [1]; 1, 5, and 10 μM): dose-dependent manner; inhibition of E. chaffeensis infection compared with peptide B7 (or B7-16) (E. chaffeensis [1]; THP-1 cells): significantly more potent inhibition; E. chaffeensis infection (numbers and sizes of morulae) (E. chaffeensis [2]): significantly inhibited

— PMC9982066, “Inhibition of Ehrlichia chaffeensis infection by cell-permeable macrocyclic peptides that bind type IV secretion effector Etf-1” (PNAS Nexus, 2023)
